The target of this experiment is T1, hKv3.1b (Homo sapiens, UniProt P48547).
T1 construct: expressed in transfected cells
T1 sequence (P48547 1-585 isoform P48547-2): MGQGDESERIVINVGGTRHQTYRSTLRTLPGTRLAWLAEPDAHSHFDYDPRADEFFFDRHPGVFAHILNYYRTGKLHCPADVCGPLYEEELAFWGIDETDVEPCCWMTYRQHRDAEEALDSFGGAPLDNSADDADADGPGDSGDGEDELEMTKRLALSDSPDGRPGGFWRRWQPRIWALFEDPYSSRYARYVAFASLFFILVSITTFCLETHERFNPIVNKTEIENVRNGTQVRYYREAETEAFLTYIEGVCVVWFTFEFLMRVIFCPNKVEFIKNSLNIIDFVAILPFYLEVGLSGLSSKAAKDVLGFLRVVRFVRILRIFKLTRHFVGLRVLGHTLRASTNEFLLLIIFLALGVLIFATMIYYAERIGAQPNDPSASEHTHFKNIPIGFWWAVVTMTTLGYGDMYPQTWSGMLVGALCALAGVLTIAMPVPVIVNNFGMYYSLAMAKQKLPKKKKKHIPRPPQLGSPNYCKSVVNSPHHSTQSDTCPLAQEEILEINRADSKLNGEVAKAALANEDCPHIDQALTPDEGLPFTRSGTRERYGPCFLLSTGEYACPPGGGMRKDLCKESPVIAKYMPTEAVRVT
In words: Automated whole-cell patch-clamp (QPatch-16x) on HEK-293 cells stably expressing hKv3.1b: shift of voltage threshold for channel activation. The experiment is classed as cell-based. The following applies: HEK-293 hKv3.1b; for ECdelta5mV: concentration needed to shift the threshold 5 mV, read out from fitted concentration response curve; for Max Delta threshold: maximum absolute shift of activation threshold to more hyperpolarized potentials at the tested concentrations (0.37, 1.11, 3.33, 10, 30 μM). Here is the method: HEK-293 cells stably expressing hKv3.1b was used for the experiments. Cells were cultured in DMEM medium supplemented with 10% Fetal Bovine Serum, 100 ug/mL Geneticidin and 100 u/mL Penicillin/Streptomycin (all from Gibco). Cells were grown to 80-90% confluency at 37° C. and 5% CO2. On the day of the experiment the cells were detached from the tissue culture flasks by Detachin and resuspended in serum free medium containing 25 mM HEPES and transferred to the cell hotel of the QPatch. The cells were used for experiments 0-5 hours after detachment.
Patch-clamp recordings were performed using the automated recording system QPatch-16x (Sophion Bioscience, Denmark). Cells were centrifuged, SFM removed and the cells were resuspended in extracellular buffer containing (in mM): 145 NaCl, 4 KCl, 1 MgCl2, 2 CaCl2, 10 HEPES and 10 glucose (added fresh on the day of experiment); pH 7.4 adjusted with NaOH, 305 mOsm adjusted with sucrose.
Single cell whole-cell recordings were carried out using an intracellular solution containing (in mM): 120 KCl, 32.25/10 KOH/EGTA, 5.374 CaCl2, 1.75 MgCl2, 10 HEPES, 4 Na2ATP (added fresh on the day), pH 7.2 adjusted with KOH, […] adjusted with sucrose. Cell membrane potentials were held at −80 mV and currents were evoked by voltage steps (200 ms duration) from −70 mV to +10 mV (in 10 mV increments).
Leak subtraction protocol was applied at −33% of the sweep amplitude, and serial resistance values were constantly monitored.
Any cell where serial resistance exceeded 25 MOhm, membrane resistance less than 200 MOhm or current size at −10 mV less than 200 pA was eliminated from the subsequent analysis.
Data analysis was performed using Sophion's QPatch assay software in combination with Microsoft Excel™ (Redmond, Wash., USA).
Current voltage relationships were plotted from the peak current at the individual voltage steps normalized to the vehicle addition at 10 mV. The voltage threshold for channel activation was defined as 5% activation of the peak current at 10 mV in presence of vehicle. The activity of the compounds was described as the ability to shift this current voltage relationship to more hyperpolarized potentials and is given as the maximum absolute shift possible at the tested concentrations (0.37, 1.11, 3.33, 10, 30 μM). Concentration response curves were plotted from the threshold shift at the individual concentrations and were fitted excel fit model 205 sigmodal dose-response model (fit=A+((B−A)/1+((C/x)^D)))), where A is the minimum value, B the maximum value, C the EC50 value and D the slope of the curve. The concentration needed to shift the threshold 5 mV was readout from this curve (ECdelta 5 mV).
In general terms: The patch-clamp technique gives a direct electrical read-out from membranes.

With `COc1ccc(S(=O)(=O)n2ccc(C(=O)NCc3cnc(C)nc3)n2)cc1` [Compound 11, 1-(4-methoxybenzene-1-sulfonyl)-N-[(2-methylpyrimidin-5-yl)methyl]-1H-pyrazole-3-carboxamide], the ECdelta5mV is on record as 2400 nM and the “Max Delta threshold” value is 29 mV.
Take `Cc1ccc(CNC(=O)c2ccn(S(=O)(=O)c3cccc(C)c3)n2)nc1` [Compound 20, 1-(3-methylbenzene-1-sulfonyl)-N-[(5-methylpyridin-2-yl)methyl]-1H-pyrazole-3-carboxamide]: the ECdelta5mV is listed as 3900 nM and the “Max Delta threshold” value is on record as 12 mV.
As for `COc1ccc(S(=O)(=O)n2ccc(C(=O)NCc3ccn(C)n3)n2)cc1` [Compound 44, 1-(4-methoxybenzene-1-sulfonyl)-N-[(1-methyl-1H-pyrazol-3-yl)methyl]-1H-pyrazole-3-carboxamide], the ECdelta5mV was found to be 1400 nM and the “Max Delta threshold” value is 25 mV.
With `COc1ccc(S(=O)(=O)n2ccc(C(=O)NCc3ncc(C)o3)n2)cc1` [Compound 36, 1-(4-methoxybenzene-1-sulfonyl)-N-[(5-methyl-1,3-oxazol-2-yl)methyl]-1H-pyrazole-3-carboxamide], the ECdelta5mV is 1500 nM and the “Max Delta threshold” value was determined as 17 mV.
Consider `Cc1ccc(S(=O)(=O)n2ccc(C(=O)NCc3nncs3)n2)cc1` [Compound 47, 1-(4-methylbenzene-1-sulfonyl)-N-[(1,3,4-thiadiazol-2-yl)methyl]-1H-pyrazole-3-carboxamide], for which the ECdelta5mV stood at 3300 nM and the “Max Delta threshold” value was determined as 16 mV.
With `Cc1cccc(S(=O)(=O)n2ccc(C(=O)NCc3ncc(C)o3)n2)c1` [Compound 18, 1-(3-methylbenzene-1-sulfonyl)-N-[(5-methyl-1,3-oxazol-2-yl)methyl]-1H-pyrazole-3-carboxamide], the ECdelta5mV is recorded as 7300 nM and the “Max Delta threshold” value worked out at 13 mV.
Taken in the same sequence, the figures for `Cc1cnc(CNC(=O)c2ccn(S(=O)(=O)c3ccc(Cl)cc3F)n2)cn1` [Compound 73, 1-(4-chloro-2-fluoro-phenyl)sulfonyl-N-[(5-methylpyrazin-2-yl)methyl]pyrazole-3-carboxamide] were 2400 nM and 33 mV.
As to `Cc1cccc(S(=O)(=O)n2ccc(C(=O)NCc3ccn(C)n3)n2)c1` [Compound 22, 1-(3-methylbenzene-1-sulfonyl)-N-[(1-methyl-1H-pyrazol-3-yl)methyl]-1H-pyrazole-3-carboxamide], the ECdelta5mV was 3700 nM and the “Max Delta threshold” value is on record as 14 mV.
Consider `COc1ccc(S(=O)(=O)n2ccc(C(=O)NCc3ncc(C)cn3)n2)cc1` [Compound 37, 1-(4-methoxybenzene-1-sulfonyl)-N-[(5-methylpyrimidin-2-yl)methyl]-1H-pyrazole-3-carboxamide], for which the ECdelta5mV was found to be 2400 nM and the “Max Delta threshold” value turned out to be 27 mV.
Take `Cc1ccc(CNC(=O)c2ccn(S(=O)(=O)c3ccccc3C)n2)nc1` [Compound 27, 1-(2-methylbenzene-1-sulfonyl)-N-[(5-methylpyridin-2-yl)methyl]-1H-pyrazole-3-carboxamide]: the ECdelta5mV is 3300 nM and the “Max Delta threshold” value stood at 18 mV.
Turning to `Cc1cnc(CNC(=O)c2ccn(S(=O)(=O)c3ccc(F)c(Cl)c3)n2)cn1` [Compound 69, 1-(3-chloro-4-fluoro-phenyl)sulfonyl-N-[(5-methylpyrazin-2-yl)methyl]pyrazole-3-carboxamide], the ECdelta5mV was found to be 4600 nM and the “Max Delta threshold” value came to 16 mV.
On the same counts, the results for `Cc1ccc(S(=O)(=O)n2ccc(C(=O)NCc3ccn(C)n3)n2)cc1` [Compound 39, 1-(4-methylbenzene-1-sulfonyl)-N-[(1-methyl-1H-pyrazol-3-yl)methyl]-1H-pyrazole-3-carboxamide] are 1600 nM and 21 mV.
In the case of `COc1ccc(S(=O)(=O)n2ccc(C(=O)NCc3cccnc3)n2)cc1` [Compound 64, 1-(4-methoxyphenyl)sulfonyl-N-(3-pyridylmethyl)pyrazole-3-carboxamide], the ECdelta5mV worked out at 1600 nM and the “Max Delta threshold” value worked out at 24 mV.
Taken in the same sequence, the figures for `Cc1cccc(S(=O)(=O)n2ccc(C(=O)NCc3cnn(C)c3)n2)c1` [Compound 21, 1-(3-methylbenzene-1-sulfonyl)-N-[(1-methyl-1H-pyrazol-4-yl)methyl]-1H-pyrazole-3-carboxamide] were 3700 nM and 16 mV.
On the same counts, the results for `COc1ccc(S(=O)(=O)n2ccc(C(=O)NCc3cnc(C)cn3)n2)cc1` [Compound 5, 1-(4-methoxybenzene-1-sulfonyl)-N-[(5-methylpyrazin-2-yl)methyl]-1H-pyrazole-3-carboxamide] are 1800 nM and 26 mV.
For `Cc1ccc(S(=O)(=O)n2ccc(C(=O)NCc3cn(C)cn3)n2)cc1` [Compound 53, 1-(4-methylbenzene-1-sulfonyl)-N-[(1-methyl-1H-imidazol-4-yl)methyl]-1H-pyrazole-3-carboxamide], the ECdelta5mV was 1900 nM and the “Max Delta threshold” value is recorded as 20 mV.
In the case of `Cc1ccc(S(=O)(=O)n2ccc(C(=O)NCc3cn(C)nn3)n2)cc1` [Compound 46, 1-(4-methylbenzene-1-sulfonyl)-N-[(1-methyl-1H-1,2,3-triazol-4-yl)methyl]-1H-pyrazole-3-carboxamide], the ECdelta5mV is listed as 1800 nM and the “Max Delta threshold” value worked out at 22 mV.
`Cn1ccc(CNC(=O)c2ccn(S(=O)(=O)c3ccc(F)cc3)n2)n1` [Compound 35, 1-(4-fluorobenzene-1-sulfonyl)-N-[(1-methyl-1H-pyrazol-3-yl)methyl]-1H-pyrazole-3-carboxamide]: the ECdelta5mV is 4800 nM and the “Max Delta threshold” value turned out to be 12 mV.
Taken in the same sequence, the figures for `Cc1ccccc1S(=O)(=O)n1ccc(C(=O)NCc2ccn(C)n2)n1` [Compound 26, 1-(2-methylbenzene-1-sulfonyl)-N-[(1-methyl-1H-pyrazol-3-yl)methyl]-1H-pyrazole-3-carboxamide] were 2900 nM and 16 mV.
For the compound `Cc1cc(CNC(=O)c2ccn(S(=O)(=O)c3ccccc3)n2)on1` [Compound 14, 1-(benzenesulfonyl)-N-[(3-methyl-1,2-oxazol-5-yl)methyl]-1H-pyrazole-3-carboxamide], the ECdelta5mV is listed as 4500 nM and the “Max Delta threshold” value worked out at 14 mV.
`COc1ccc(S(=O)(=O)n2ccc(C(=O)NCc3cnccn3)n2)c(C)c1` [Compound 3, 1-(4-methoxy-2-methylbenzene-1-sulfonyl)-N-[(pyrazin-2-yl)methyl]-1H-pyrazole-3-carboxamide]: the ECdelta5mV came to 1600 nM and the “Max Delta threshold” value is on record as 25 mV.
On the same counts, the results for `COc1ccc(S(=O)(=O)n2ccc(C(=O)NCc3ncccc3F)n2)cc1` [Compound 86, N-[(3-fluoro-2-pyridyl)methyl]-1-(4-methoxyphenyl)sulfonyl-pyrazole-3-carboxamide] are 2400 nM and 19 mV.
As to `Cc1ccc(S(=O)(=O)n2cc(C)c(C(=O)NCc3cnc(C)cn3)n2)cc1` [Compound 32, 4-methyl-1-(4-methylbenzene-1-sulfonyl)-N-[(5-methylpyrazin-2-yl)methyl]-1H-pyrazole-3-carboxamide], the ECdelta5mV turned out to be 4300 nM and the “Max Delta threshold” value is 12 mV.

These data come from patent US20220220095A1, “N-((HETEROARYL)METHYL)-1-TOSYL-1H-PYRAZOLE-3-CARBOXAMIDE DERIVATIVES AS Kv3 POTASSIUM CHANNEL ACTIVATORS FOR TREATING NEUROLOGICAL AND [sequence] DISORDERS” (H. Lundbeck A/S, priority 2019, published 2022).
